# Data taken from US10426778B2, “Prophylactic agent and/or therapeutic agent for diffuse large B-cell lymphoma” (ONO PHARMACEUTICAL CO., LTD., priority 2014, dated 2019).
# System: ABC-DLBCL patients
# Experiment: Open label multicenter non-randomized clinical trial of the present compound as monotherapy in recurrent or refractory ABC-DLBCL patients
# Assay type: in vivo, human
# Method: A clinical trial was conducted by an open label multicenter non-randomized test by administering 6-amino-9-[(3R)-1-(2-butynoyl)-3-pyrrolidinyl]-7-(4-phenoxyphenyl)-7,9-dihydro-8H-purin-8-one hydrochloride, the present compound, as monotherapy to an ABC-DLBCL patient.
# Among the patients who had already received treatment, who had been diagnosed as a non-Hodgkin's lymphoma, for whom higher preference order of treatment was not present, and who fell under the following definition of “recurrent” or “refractory”, patients satisfying the following conditions entered.
# Recurrent: Patients who attained Complete Response (CR), Complete Response, unconfirmed (CRu), CR with incomplete marrow recovery (CRi) or Partial Response (PR) for 6 months or longer after the last treatment of non-Hodgkin's lymphoma, and for whom pathological advance was recognized.
# Refractory: Patients who could not attain CR, CRu, CRi or PR after the last treatment of non-Hodgkin's lymphoma, or patients who acquired CR, CRu, CRi or PR for shorter than 6 months after the last treatment, but for whom pathological advance was recognized.
# Condition: Two or more NHL treatments have already failed.
# A fixed dose of the present compound was orally administered once per day, with one cycle being treatment for 28 days in 3 patients per one cohort. The schedule was such that this cycle was conducted until 6 cycles, and could be maximally extended to 24 cycles. In the first cohort, all the patients were administered at a fixed dose of 20 mg of the present compound.
# Regarding the NHL patients who entered under the above conditions, an immunohistochemical method or gene expression profiling was conducted according to a conventional method using a diagnostic sample obtained by tissue biopsy excising a part of affected lymph node, so that patients affected with ABC-DLBCL were extracted.
# Primary evaluation items were safety, tolerance and dose limiting toxicities (DLTs). These items were evaluated using manifestation of adverse event, physical examination, clinical test, vital sign and cardiograph. In addition, the intensity of the adverse event was determined using Common Terminology Criteria for Adverse Events (CTCAE) version 4.0 of the National Cancer Institute.
# Secondary evaluation items were Overall Response Rate (ORR), Complete Response Rate (CR, CRu, CRi), Partial Response Rate (PR), Progression Free Survival (PFS), Overall Survival (OS), Duration of Response, Event Free Survival (EFS), Pharmacokinetics (PK) and Pharmacodynamics (PD). In addition, the evaluations of CR, CRu and PR were conducted by referring to evaluation criteria described in Journal of Clinical Oncology, Vol. 17, No. 4, pages 1244-1253, 1999.
# Biopsy samples of tumor were obtained from ABC-DLBCL patients before administration of the present compound. From the samples, genomic DNA was extracted by conventional method, and the presence or absence of CD79B mutation was confirmed in accordance with the method described in Nature, No. 463, pages 88-92, 2010. As a result, it was seen that, among the 8 ABC-DLBCL patients, all of 7 evaluable patients had CD79B wild-type gene background.
# [1] = in 8 cases, cohort 4 (160 mg) or cohort 5 (520 mg)
smiles,measurement,setting,value
"CC#CC(=O)N1CC[C@@H](n2c(=O)n(-c3ccc(Oc4ccccc4)cc3)c3c(N)ncnc32)C1.Cl [present compound, 6-amino-9-[(3R)-1-(2-butynoyl)-3-pyrrolidinyl]-7-(4-phenoxyphenyl)-7,9-dihydro-8H-purin-8-one hydrochloride]",Overall Response Rate (ORR) in ABC-DLBCL patients having CD79B wild-type,6 cases in 7 cases,85%
same,bleeding-associated event such as intracranial bleeding as adverse event,13 ABC-DLBCL patients,not seen at all
same,tolerance,13 ABC-DLBCL patients administered the present compound,high tolerance
same,Overall Response Rate (ORR),"ABC-DLBCL patients, 8 cases, cohort 4 (160 mg) or cohort 5 (520 mg), oral once per day",75%
same,adverse events classified into grade 3 (drug reaction and lymphopenia),"among the 5 cases with adverse event of 13 cases, CTCAE version 4.0",2 cases
same,PR cases,[1],6 cases
same,disease progression cases,[1],2 cases
same,median value of decrease in lymph node,"in the 6 PR cases, cohort 4 (160 mg) or cohort 5 (520 mg)",81.5%
same,decrease in lymph node swelling recognized,"of 8 ABC-DLBCL patients, first administration cycle, oral once per day",6 patients
same,adverse event associated with the present compound,of 13 cases,5 cases
